The values below come from patent publication US10072011B2, “Substituted bridged urea analogs as sirtuin modulators” (GlaxoSmithKline Intellectual Property (No.2) Limited, priority 2014, dated 2018).

Like-named read-outs stand apart in the source and are kept apart here.

The target in this assay is T1, SIRT1 (Homo sapiens, UniProt Q96EB6).
T1 sequence (Q96EB6 1-747): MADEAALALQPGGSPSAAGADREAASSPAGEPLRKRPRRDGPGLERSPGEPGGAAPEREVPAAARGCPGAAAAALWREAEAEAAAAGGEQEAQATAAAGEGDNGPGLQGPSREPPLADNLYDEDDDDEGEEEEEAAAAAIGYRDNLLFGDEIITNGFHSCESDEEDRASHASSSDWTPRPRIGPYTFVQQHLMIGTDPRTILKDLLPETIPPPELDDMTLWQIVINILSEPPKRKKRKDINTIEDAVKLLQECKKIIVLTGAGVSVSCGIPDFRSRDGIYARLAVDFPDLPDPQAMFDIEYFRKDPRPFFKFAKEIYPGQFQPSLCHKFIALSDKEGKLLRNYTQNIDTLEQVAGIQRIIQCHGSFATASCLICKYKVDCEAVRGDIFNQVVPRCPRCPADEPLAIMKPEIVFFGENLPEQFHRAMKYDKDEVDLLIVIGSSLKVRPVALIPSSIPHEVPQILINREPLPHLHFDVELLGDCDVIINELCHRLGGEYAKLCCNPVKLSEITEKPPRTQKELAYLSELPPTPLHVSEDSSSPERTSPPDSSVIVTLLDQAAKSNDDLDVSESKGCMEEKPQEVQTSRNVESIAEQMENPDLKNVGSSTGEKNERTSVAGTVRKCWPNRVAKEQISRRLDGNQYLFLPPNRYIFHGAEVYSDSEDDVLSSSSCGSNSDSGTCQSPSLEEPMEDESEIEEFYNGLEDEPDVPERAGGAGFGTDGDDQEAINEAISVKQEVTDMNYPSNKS
Nature of the assay: Trp mass spectrometry assay of SIRT1 activation (Ac-R-H-K-K(Ac)-W-NH2 peptide). The class given is biochemical. The settings on record: for Emax: 25 min, read-out: TRP MAX RESP (percent maximum fold activation). The procedure, abridged: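 N-terminal His-tagged human SIRT1, expressed in BL21(DE3) and purified, was incubated 25 min with an acetylated Trp peptide and NAD plus test compound at varying concentrations, then quenched with formic acid. OAADPR or deacetylated peptide was quantified by mass spectrometry versus compound-free control; EC1.5 is the concentration giving 50% activity increase, with percent maximum activation.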

[1] abbreviates: Trp peptide 0.5 μM, 120 μM βNAD+, 10 nM SIRT1, 25 min at 25° C., relative to control (100%).
Where [2] appears, read: Trp peptide 0.5 μM, 120 μM βNAD+, 10 nM SIRT1, 25 min at 25° C.

For the molecule `C[C@@H](NC(=O)c1ccc2c(n1)N(C(=O)Nc1cc(OCCO)ccn1)[C@H]1CCN2C1)C(F)(F)F` [Example 132, (4S)—N5-(4-(2-hydroxyethoxy)pyridin-2-yl)-N7-((R)-1,1,1-trifluoropropan-2-yl)-3,4-dihydro-1,4-methanopyrido[2,3-b][1,4]diazepine-5,7(2H)-dicarboxamide], the Emax under setting [1] was above 150%. Besides, under setting [2], the “TRP Activity (EC1.5, concentration of test compound that results in 150% activation of SIRT1)” value is “A (EC1.5<1 μM)”.
In the same order, the values of `O=C(NCC(F)(F)F)c1ccc2c(n1)N(C(=O)Nc1cc3c(cn1)OCCC3)[C@H]1CCN2C1` [Example 133, (4S)—N5-(3,4-dihydro-2H-pyrano[2,3-c]pyridin-6-yl)-N7-(2,2,2-trifluoroethyl)-3,4-dihydro-1,4-methanopyrido[2,3-b][1,4]diazepine-5,7(2H)-dicarboxamide] are above 150% and “A (EC1.5<1 μM)”.
Taken in the same sequence, the figures for `C[C@@H](NC(=O)c1ccc2c(n1)N(C(=O)Nc1cc(-c3cnco3)ccn1)[C@H]1CCN2C1)C(F)(F)F` [Example 134, (4S)—N5-(4-(oxazol-5-yl)pyridin-2-yl)-N7-((R)-1,1,1-trifluoropropan-2-yl)-3,4-dihydro-1,4-methanopyrido[2,3-b][1,4]diazepine-5,7(2H)-dicarboxamide] were above 150% and “A (EC1.5<1 μM)”.
On to `COc1ccnc(NC(=O)N2c3nc(C(=O)N[C@H](C)C(F)(F)F)ccc3N3CC[C@H]2C3)c1` [Example 135, (4S)—N5-(4-methoxypyridin-2-yl)-N7-((R)-1,1,1-trifluoropropan-2-yl)-3,4-dihydro-1,4-methanopyrido[2,3-b][1,4]diazepine-5,7(2H)-dicarboxamide], for which the Emax under setting [1] is above 150%. In addition, the “TRP Activity (EC1.5, concentration of test compound that results in 150% activation of SIRT1)” value under setting [2] is “A (EC1.5<1 μM)”.
Taken in the same sequence, the figures for `COc1ccnc(NC(=O)N2c3nc(C(=O)NCC(F)(F)F)ccc3N3CC[C@H]2C3)c1` [Example 136, (4S)—N5-(4-methoxypyridin-2-yl)-N7-(2,2,2-trifluoroethyl)-3,4-dihydro-1,4-methanopyrido[2,3-b][1,4]diazepine-5,7(2H)-dicarboxamide] were above 150% and “A (EC1.5<1 μM)”.
For the molecule `C[C@@H](NC(=O)c1ccc2c(n1)N(C(=O)Nc1cc(C(N)=O)ccn1)[C@H]1CCN2C1)C(F)(F)F` [Example 137, (4S)—N5-(4-carbamoylpyridin-2-yl)-N7-((R)-1,1,1-trifluoropropan-2-yl)-3,4-dihydro-1,4-methanopyrido[2,3-b][1,4]diazepine-5,7(2H)-dicarboxamide], under setting [1], the Emax was above 150%. Further, under setting [2], the “TRP Activity (EC1.5, concentration of test compound that results in 150% activation of SIRT1)” value is “A (EC1.5<1 μM)”.
On to `C[C@@H](NC(=O)c1ccc2c(n1)N(C(=O)Nc1cc3c(cn1)OCCC3)[C@H]1CCN2C1)C(F)(F)F` [Example 138, (4S)—N5-(3,4-dihydro-2H-pyrano[2,3-c]pyridin-6-yl)-N7-((R)-1,1,1-trifluoropropan-2-yl)-3,4-dihydro-1,4-methanopyrido[2,3-b][1,4]diazepine-5,7(2H)-dicarboxamide], for which the Emax under setting [1] was above 150%. Under setting [2], the “TRP Activity (EC1.5, concentration of test compound that results in 150% activation of SIRT1)” value is listed as “A (EC1.5<1 μM)”.
In the case of `Cc1ccc2c(NC(=O)N3c4nc(C(=O)N[C@H](CO)C(F)(F)F)ccc4N4CC[C@H]3C4)n[nH]c2n1` [Example 139, (4S)—N5-(6-methyl-1H-pyrazolo[3,4-b]pyridin-3-yl)-N7-((R)-1,1,1-trifluoro-3-hydroxypropan-2-yl)-3,4-dihydro-1,4-methanopyrido[2,3-b][1,4]diazepine-5,7(2H)-dicarboxamide], the Emax under setting [1] is above 150%. Further, under setting [2], the “TRP Activity (EC1.5, concentration of test compound that results in 150% activation of SIRT1)” value is on record as “A (EC1.5<1 μM)”.
On to `O=C(NCC(F)(F)F)c1ccc2c(n1)N(C(=O)Nc1ncc3[nH]ccc3n1)[C@H]1CCN2C1` [Example 140, (4S)—N5-(5H-pyrrolo[3,2-d]pyrimidin-2-yl)-N7-(2,2,2-trifluoroethyl)-3,4-dihydro-1,4-methanopyrido[2,3-b][1,4]diazepine-5,7(2H)-dicarboxamide], for which the Emax is above 150%. Also, under setting [2], the “TRP Activity (EC1.5, concentration of test compound that results in 150% activation of SIRT1)” value was “A (EC1.5<1 μM)”.
Take `C[C@@H](NC(=O)c1ccc2c(n1)N(C(=O)Nc1cccc(OC[C@H](O)CO)n1)[C@H]1CCN2C1)C(F)(F)F` [Example 141, (4S)—N5-(6-((R)-2,3-dihydroxypropoxy)pyridin-2-yl)-N7-((R)-1,1,1-trifluoropropan-2-yl)-3,4-dihydro-1,4-methanopyrido[2,3-b][1,4]diazepine-5,7(2H)-dicarboxamide]: under setting [1], the Emax was above 150%. Besides, the “TRP Activity (EC1.5, concentration of test compound that results in 150% activation of SIRT1)” value under setting [2] is “A (EC1.5<1 μM)”.
Taken in the same sequence, the figures for `C#C[C@H](C)NC(=O)c1ccc2c(n1)N(C(=O)Nc1ccccn1)[C@H]1CCN2C1` [Example 142, (4S)—N7-((S)-but-3-yn-2-yl)-N5-(pyridin-2-yl)-3,4-dihydro-1,4-methanopyrido[2,3-b][1,4]diazepine-5,7(2H)-dicarboxamide] were above 150% and “A (EC1.5<1 μM)”.
In the case of `NC(=O)c1ccc(NC(=O)N2c3nc(C(=O)NCC(F)(F)F)ccc3N3CC[C@H]2C3)nc1` [Example 143, (4S)—N5-(5-carbamoylpyridin-2-yl)-N7-(2,2,2-trifluoroethyl)-3,4-dihydro-1,4-methanopyrido[2,3-b][1,4]diazepine-5,7(2H)-dicarboxamide], the Emax under setting [1] was above 150%. For the same molecule, under setting [2], the “TRP Activity (EC1.5, concentration of test compound that results in 150% activation of SIRT1)” value was “A (EC1.5<1 μM)”.
Taken in the same sequence, the figures for `C[C@@H](NC(=O)c1ccc2c(n1)N(C(=O)Nc1cccc(OC[C@@H](O)CO)n1)[C@H]1CCN2C1)C(F)(F)F` [Example 144, (4S)—N5-(6-((S)-2,3-dihydroxypropoxy)pyridin-2-yl)-N7-((R)-1,1,1-trifluoropropan-2-yl)-3,4-dihydro-1,4-methanopyrido[2,3-b][1,4]diazepine-5,7(2H)-dicarboxamide] were above 150% and “A (EC1.5<1 μM)”.
In the same order, the values of `O=C(NCC1CC1)c1ccc2c(n1)N(C(=O)Nc1cc3c(cn1)OCCC3)[C@H]1CCN2C1` [Example 145, (4S)—N7-(cyclopropylmethyl)-N5-(3,4-dihydro-2H-pyrano[2,3-c]pyridin-6-yl)-3,4-dihydro-1,4-methanopyrido[2,3-b][1,4]diazepine-5,7(2H)-dicarboxamide] are above 150% and “A (EC1.5<1 μM)”.
Taken in the same sequence, the figures for `CS(=O)(=O)c1ccc(NC(=O)N2c3nc(C(=O)NCC(F)(F)F)ccc3N3CC[C@H]2C3)nc1` [Example 146, (4S)—N5-(5-(methylsulfonyl)pyridin-2-yl)-N7-(2,2,2-trifluoroethyl)-3,4-dihydro-1,4-methanopyrido[2,3-b][1,4]diazepine-5,7(2H)-dicarboxamide] were above 150% and “B (EC1.5 1-25 μM)”.
`C[C@@H](NC(=O)c1ccc2c(n1)N(C(=O)Nc1ncc3[nH]ccc3n1)[C@H]1CCN2C1)C(F)(F)F` [Example 147, (4S)—N5-(5H-pyrrolo[3,2-d]pyrimidin-2-yl)-N7-((R)-1,1,1-trifluoropropan-2-yl)-3,4-dihydro-1,4-methanopyrido[2,3-b][1,4]diazepine-5,7(2H)-dicarboxamide]: under setting [1], the Emax was above 150%. Moreover, under setting [2], the “TRP Activity (EC1.5, concentration of test compound that results in 150% activation of SIRT1)” value was “A (EC1.5<1 μM)”.
Taken in the same sequence, the figures for `Cc1ncc(-c2ccnc(NC(=O)N3c4nc(C(=O)N[C@H](C)C(F)(F)F)ccc4N4CC[C@H]3C4)c2)s1` [Example 148, (4S)—N5-(4-(2-methylthiazol-5-yl)pyridin-2-yl)-N7-((R)-1,1,1-trifluoropropan-2-yl)-3,4-dihydro-1,4-methanopyrido[2,3-b][1,4]diazepine-5,7(2H)-dicarboxamide] were above 150% and “A (EC1.5<1 μM)”.
Taken in the same sequence, the figures for `C[C@@H](NC(=O)c1ccc2c(n1)N(C(=O)Nc1ccc(OC[C@H](O)CO)cn1)[C@H]1CCN2C1)C(F)(F)F` [Example 149, (4S)—N5-(5-((R)-2,3-dihydroxypropoxy)pyridin-2-yl)-N7-((R)-1,1,1-trifluoropropan-2-yl)-3,4-dihydro-1,4-methanopyrido[2,3-b][1,4]diazepine-5,7(2H)-dicarboxamide] were above 150% and “A (EC1.5<1 μM)”.
